Our source for the IC50 values is US12673947B2 (Cytosinlab Therapeutics Co., Ltd., priority 2020, dated 2026).

One assay relates to MV4;11 cells. Briefly: MV4;11 in vitro inhibition of proliferation assay (CellTiter-Glo, 72 hours). The class given is cell-based. To be noted: Homo sapiens, MV4-11, 72 h, IC50 class, read-out: Inhibitory activity of cell proliferation MV4;11. In short, it runs like this: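 MV4;11 cells in IMDM/10% FBS, 2000 per well, were exposed to 9-point 3-fold DMSO dilutions from 10 uM (final DMSO 0.3%) in triplicate for 72 hours at 37° C., 5% CO2. Viability was read by CellTiter-Glo luminescence, and IC50 came from a four-parameter fit of inhibition.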

For a further assay, the target named is T1, FLT3 (Homo sapiens, UniProt P36888).
T1 construct: purchased Carna 08-145
T1 sequence (P36888 27-993): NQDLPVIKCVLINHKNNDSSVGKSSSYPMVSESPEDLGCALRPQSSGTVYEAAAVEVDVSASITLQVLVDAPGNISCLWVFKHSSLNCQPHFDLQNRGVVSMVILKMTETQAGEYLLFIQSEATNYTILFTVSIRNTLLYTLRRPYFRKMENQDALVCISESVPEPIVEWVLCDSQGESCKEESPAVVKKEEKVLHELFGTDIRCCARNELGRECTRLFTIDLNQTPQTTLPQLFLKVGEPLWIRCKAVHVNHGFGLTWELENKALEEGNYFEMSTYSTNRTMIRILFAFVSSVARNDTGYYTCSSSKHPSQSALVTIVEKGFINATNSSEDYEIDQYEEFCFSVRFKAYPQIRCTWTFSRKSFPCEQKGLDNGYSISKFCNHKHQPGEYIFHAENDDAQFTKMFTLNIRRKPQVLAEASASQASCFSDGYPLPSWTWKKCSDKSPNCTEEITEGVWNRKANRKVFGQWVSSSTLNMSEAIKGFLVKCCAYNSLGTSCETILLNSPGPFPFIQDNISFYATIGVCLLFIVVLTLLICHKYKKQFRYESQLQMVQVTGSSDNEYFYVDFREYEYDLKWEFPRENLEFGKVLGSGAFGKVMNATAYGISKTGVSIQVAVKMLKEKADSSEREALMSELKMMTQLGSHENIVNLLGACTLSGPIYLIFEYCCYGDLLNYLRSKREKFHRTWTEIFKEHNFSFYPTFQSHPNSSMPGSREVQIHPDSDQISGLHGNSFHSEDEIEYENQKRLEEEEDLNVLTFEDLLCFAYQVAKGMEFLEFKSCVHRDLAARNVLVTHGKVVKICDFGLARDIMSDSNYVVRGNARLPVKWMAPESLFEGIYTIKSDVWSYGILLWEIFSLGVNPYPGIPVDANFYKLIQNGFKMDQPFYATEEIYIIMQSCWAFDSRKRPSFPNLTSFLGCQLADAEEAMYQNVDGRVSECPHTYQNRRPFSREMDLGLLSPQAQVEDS
Briefly: FLT3 kinase in vitro inhibitory activity experiment (Caliper mobility shift, conversion rate). The class given is biochemical. To be noted: IC50 class, read-out: Enzyme activity FLT3. In short, it runs like this: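 FLT3 was pre-incubated with compound for 10 min at room temperature, then the reaction was started with ATP plus Kinase substrate 2 and run 30 min at room temperature before stop solution. Substrate conversion was read by Caliper mobility shift.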

Turning to `CCc1nc2c(N)ncc(-c3cnn(C4CCN(C(=O)OC(C)(C)C)CC4)c3)c2nc1N[C@@H]1CC[C@H](O)C1` [Compound 190], the IC50 in the assay on MV4;11 cells and on FLT3 was at most 10 nM each time.

On to `CCc1nc2c(N)ncc(-c3cnn(C4CCCCC4)c3)c2nc1N[C@@H]1CC[C@H](O)C1` [Compound 192], for which the IC50 in the assay on MV4;11 cells and on FLT3 was at most 10 nM throughout.

For the compound `CCc1nc2c(N)ncc(-c3cnn(C4CCC(F)(F)CC4)c3)c2nc1N[C@@H]1CC[C@H](O)C1` [Compound 193], the IC50 in the assay on MV4;11 cells and at FLT3 was at most 10 nM each time.

On to `CCc1nc2c(N)ncc(-c3cnn(C)c3)c2nc1N[C@@H]1CC[C@H](O)C1` [Compound 194], for which the IC50 in the assay with MV4;11 cells and on FLT3 was at most 10 nM throughout.

Take `CCc1nc2c(N)ncc(-c3cnn(C(CC)CC)c3)c2nc1N[C@@H]1CC[C@H](O)C1` [Compound 195]: the IC50 in the assay with MV4;11 cells and at FLT3 was 10 to 100 nM in each case.

As to `CCc1nc2c(N)ncc(-c3cnn(CCOC)c3)c2nc1N[C@@H]1CC[C@H](O)C1` [Compound 196], the IC50 in the assay with MV4;11 cells is 10 to 100 nM; on FLT3, at most 10 nM.

On to `CCc1nc2c(N)ncc(-c3cnn(CC(C)(C)O)c3)c2nc1N[C@@H]1CC[C@H](O)C1` [Compound 197], for which the IC50 in the assay with MV4;11 cells is 10 to 100 nM; on FLT3, at most 10 nM.

As to `CCc1nc2c(N)ncc(-c3cnn(CCO)c3)c2nc1N[C@@H]1CC[C@H](O)C1` [Compound 198], the IC50 in the assay on MV4;11 cells is 10 to 100 nM; at FLT3 it was at most 10 nM.

In the case of `CCc1nc2c(N)ncc(-c3cnn(C4COC4)c3)c2nc1N[C@@H]1CC[C@H](O)C1` [Compound 199], the IC50 in the assay with MV4;11 cells and at FLT3 was at most 10 nM throughout.

With `CCc1nc2c(N)ncc(-c3cnn(CC4COC4)c3)c2nc1N[C@@H]1CC[C@H](O)C1` [Compound 200], the IC50 in the assay on MV4;11 cells and at FLT3 was at most 10 nM each time.

With `CCc1nc2c(N)ncc(-c3cnn(C(C)C)c3)c2nc1N[C@@H]1CC[C@H](O)C1` [Compound 201], the IC50 in the assay with MV4;11 cells and on FLT3 was at most 10 nM in each case.

Turning to `CCc1nc2c(N)ncc(-c3cnn(C4CC4)c3)c2nc1N[C@@H]1CC[C@H](O)C1` [Compound 202], the IC50 in the assay with MV4;11 cells and on FLT3 was at most 10 nM throughout.

With `CCc1nc2c(N)ncc(-c3cn[nH]c3)c2nc1N[C@@H]1CC[C@H](O)C1` [Compound 203], the IC50 is 10 to 100 nM with MV4;11 cells and at most 10 nM on FLT3.

For `CCc1nc2c(N)ncc(-c3cnn(CC4CCN(C)CC4)c3)c2nc1N[C@@H]1CC[C@H](O)C1` [Compound 204], the IC50 with MV4;11 cells and at FLT3 was at most 10 nM each time.

`CCOCC1(COCC)CCC(n2cc(-c3cnc(N)c4nc(CC)c(N[C@@H]5CC[C@H](O)C5)nc34)cn2)CC1` [Compound 205]: the IC50 with MV4;11 cells and at FLT3 was at most 10 nM each time.

With `CCc1nc2c(N)ncc(-c3cnn(C4CCNCC4)c3)c2nc1NC1CCC(O)C1` (stereo not shown) [Compound 206], the IC50 in the assay with MV4;11 cells was 10 to 100 nM; at FLT3, at most 10 nM.

Take `CCc1nc2c(N)ncc(-c3cnn(C4CCN(CCO)CC4)c3)c2nc1N[C@@H]1CC[C@H](O)C1` [Compound 207, (1S,3R)-3-((5-amino-3-ethyl-8-(1-(1-(2-hydroxyethyl)piperidin-4-yl)-1H-pyrazol-4-yl)pyridino[3,4-b]pyrazin-2-yl)amino)cyclopentan-1-ol]: the IC50 in the assay with MV4;11 cells and at FLT3 was at most 10 nM each time.

Turning to `CCc1nc2c(N)ncc(-c3cnn(C4CCN(C5CCOCC5)CC4)c3)c2nc1N[C@@H]1CC[C@H](O)C1` [Compound 208], the IC50 in the assay on MV4;11 cells and at FLT3 was at most 10 nM throughout.

Turning to `CCc1nc2c(N)ncc(-c3cnn(C4CCN(C5COC5)CC4)c3)c2nc1N[C@@H]1CC[C@H](O)C1` [Compound 209], the IC50 with MV4;11 cells and on FLT3 was at most 10 nM throughout.

As to `CCc1nc2c(N)ncc(-c3cnn(C4CCN(C5CN(C)C5)CC4)c3)c2nc1N[C@@H]1CC[C@H](O)C1` [Compound 210], the IC50 in the assay on MV4;11 cells and on FLT3 was at most 10 nM each time.
